The text below walks through data of patent US20190365641A1, “RAPIDLY DISINTEGRATING FORMULATIONS AND METHODS OF USE” (Impax Laboratories, Inc., priority 2013, published 2019).

Converted amounts (≈) assume the structure as drawn. “And” between values parts separate entries of the source, which are not always exact repeats. Equal entries are not always repeated. Structures can show the parent of a compound that is named as a salt. Where two headings read alike, the source gives them in different places.

Data set [1] in a line: Solubility of apomorphine in phosphate buffers at varying pH (Example 14). Format: physicochemical. Particulars: stirred ~18 hours. The protocol: The testing procedure was as followings: • 1. […] The samples were stirred for ˜18 hours before analysis. • 4. […] The samples were stirred for ˜18 hours before analysis. • 5. After stirring ˜2mL of the supernatant was obtained from each vial and centrifuge at 12000 RPM to precipitate un-dissolved drug. • 6. After centrifugations, approximately 1 mL of the supernatant was diluted with approximately 50 mL of water: methanol: H3PO4 (50:50:1.2 v/v) for HPLC analysis according to the procedure described in Example 13 above.

Data set [2] can be described thus: Dissolution in simulated saliva media (Example 15). It is filed as physicochemical. Particulars: simulated saliva pH 6.2, 37° C., two samples per time point, hydrochloride. The protocol:
The dissolution of the composition as described in Example 5 was compared to the dissolution of USP grade apomorphine hydrochloride. The following procedure was employed to obtain the dissolution profiles: • 1.
• 3. Approximately 5 mL or 10 mL of pre-warmed simulated saliva was added to the vials of step 2 according to the table above, and a stop watch was started. The vials with the media were gently swirled to allow the powder in the vials to go into solution. • 4. At specific time points, samples of the media were withdrawn from the vials of step 3 and transferred into the barrel of a 10 mL syringe with a […] filter attached to the tip of the syringe. The solution was pushed through the filter and collected for HPLC assay according to the procedure described in Example 13 above. • 5. For sample time points longer than 5 minutes the vials of step 3 were placed in a 37° C. incubator and shaken at 50 rpms until the collection time point.

The conditions of data set [3]: sublingual apomorphine tablets, prolonged use; cited from earlier work.
The conditions of data set [4]: subcutaneous injections, on-off fluctuations in Parkinson's disease; cited from earlier work.

Consider `CN1CCc2cccc3c2[C@H]1Cc1ccc(O)c(O)c1-3` [Apomorphine Free Base, 6αβ-aporphine-10, 11 diol], for which the solubility (commonly the dissolved amount per volume that the medium holds) in data set [1] (pH 2.50 phosphate buffer, unit assumed) turned out to be 9200 µg/mL (≈ 34.4 mM); in data set [1] (pH 3.00 phosphate buffer, unit assumed), 3700 µg/mL (≈ 13.8 mM); in data set [1] (pH 4.00 phosphate buffer, unit assumed), 2700 µg/mL (≈ 10.1 mM); in data set [1] (pH 5.00 phosphate buffer, unit assumed), 2500 µg/mL (≈ 9.35 mM); in data set [1] (pH 6.00 phosphate buffer, unit assumed), 2000 µg/mL (≈ 7.48 mM); in data set [1] (pH 6.20 phosphate buffer, unit assumed), 1700 µg/mL (≈ 6.36 mM). For the same compound, the solubility was 1700 µg/mL (≈ 6.36 mM) in data set [1] (pH 6.40 phosphate buffer, unit assumed); 1300 µg/mL (≈ 4.86 mM) in data set [1] (pH 6.60 phosphate buffer, unit assumed); 1200 µg/mL (≈ 4.49 mM) in data set [1] (pH 6.80 phosphate buffer, unit assumed); 670 µg/mL (≈ 2.51 mM) in data set [1] (pH 7.00 phosphate buffer, unit assumed); 400 µg/mL (≈ 1.5 mM) in data set [1] (pH 7.40 phosphate buffer, unit assumed); 120 µg/mL (≈ 0.449 mM) in data set [1] (pH 8.00 phosphate buffer, unit assumed).

`CN1CCc2cccc3c2[C@H]1Cc1ccc(O)c(O)c1-3` [Apomorphine HCl, apomorphine hydrochloride]: the dissolution is 30.52% and 27.73% in data set [2] (0.5 min); 34.58% and 30.24% in data set [2] (1 min); 57.54% and 46.57% in data set [2] (5 min); 46.00% and 52.29% in data set [2] (10 min); 53.23% and 74.97% in data set [2] (30 min); 22.75% and 19.05% in data set [2] (Initial). For the same compound, the solubility in data set [1] (pH 2.50 phosphate buffer, hydrochloride, unit assumed) came out at 22800 µg/mL; in data set [1] (pH 3.00 phosphate buffer, hydrochloride, unit assumed), 21600 µg/mL; in data set [1] (pH 4.00 phosphate buffer, hydrochloride, unit assumed), 20000 µg/mL; in data set [1] (pH 5.00 phosphate buffer, hydrochloride, unit assumed), 18800 µg/mL; in data set [1] (pH 6.00 phosphate buffer, hydrochloride, unit assumed) it was 7400 µg/mL; in data set [1] (pH 6.20 phosphate buffer, hydrochloride, unit assumed), 7200 µg/mL. The solubility in data set [1] (pH 6.40 phosphate buffer, hydrochloride, unit assumed) was determined as 3700 µg/mL; in data set [1] (pH 8.00 phosphate buffer, hydrochloride, unit assumed), 270 µg/mL; in data set [1] (phosphate buffer, pH 6.6, aqueous buffer, thermodynamic from solid, pH 6.60 phosphate buffer, read-out: solubility), 1900 µg/mL; in data set [1] (phosphate buffer, pH 6.8, aqueous buffer, thermodynamic from solid, pH 6.80 phosphate buffer, read-out: solubility) it was 1400 µg/mL; in data set [1] (phosphate buffer, pH 7, aqueous buffer, thermodynamic from solid, pH 7.00 phosphate buffer, read-out: solubility) it was 1000 µg/mL; in data set [1] (phosphate buffer, pH 7.4, aqueous buffer, thermodynamic from solid, pH 7.40 phosphate buffer, read-out: solubility), 610 µg/mL.

In the case of `CN1CCc2cccc3c2[C@H]1Cc1ccc(O)c(O)c1-3` [apomorphine, 6αβ-aporphine-10, 11 diol], the “patients with buccal mucosal ulceration (severe stomatitis)” value in data set [3] is on record as “approximately 30%”. In data set [4], the duration of effect was 45 to 90 min and the “time to effect after administration” value was 5 to 15 min.
